Test results reported in ChEMBL document CHEMBL1146150, “Synthesis and antibacterial activity of novel neamine derivatives” (2006).
In brackets after ≈: the same amount, converted by molar mass.

The compounds below were run on Staphylococcus aureus (assay: Antibacterial activity against Staphylococcus aureus RN4220 by twofold agar dilution method).
Type: functional

| SMILES | MIC [mg/L] |
| --- | --- |
| NCCNC(=O)O[C@@H]1[C@@H](O)[C@H](O[C@H]2O[C@H](CN)CC[C@H]2N)[C@@H](N)C[C@H]1NC(=O)[C@@H](O)CCN | 8 (≈ 16.8 µM) |
| CN[C@@H]1[C@@H](O)[C@@H](O[C@@H]2[C@@H](O)[C@H](O[C@H]3O[C@H](C(C)N)CC[C@H]3N)[C@@H](N)C[C@H]2N)OC[C@]1(C)O (some centres undefined) [GENTAMICIN C2] | 0.25 (≈ 0.539 µM) |
| NC[C@@H]1CC[C@@H](N)[C@@H](O[C@H]2[C@H](O)[C@@H](O)[C@H](N)C[C@@H]2N)O1 [GENTAMINE C1A] | 16 (≈ 55.1 µM) |
| NCC[C@H](O)C(=O)N[C@@H]1C[C@H](N)[C@@H](O[C@H]2O[C@H](CN)CC[C@H]2N)[C@H](O)[C@H]1O[C@H]1O[C@H](CO)[C@@H](O)[C@H](N)[C@H]1O [ARBEKACIN] | 0.5 (≈ 0.905 µM) |
| CN[C@@H]1[C@@H](O)[C@@H](O[C@@H]2[C@@H](O)[C@H](O[C@H]3O[C@H]([C@@H](C)NC)CC[C@H]3N)[C@@H](N)C[C@H]2N)OC[C@]1(C)O [GENTAMICIN C1] | 0.25 (≈ 0.523 µM) |

The compounds below were run on Escherichia coli (assay: Antibacterial activity against Escherichia coli NIH JC2 by twofold agar dilution method).
Type: functional

| SMILES | MIC [mg/L] |
| --- | --- |
| NCCNC(=O)O[C@@H]1[C@@H](O)[C@H](O[C@H]2O[C@H](CN)CC[C@H]2N)[C@@H](N)C[C@H]1NC(=O)[C@@H](O)CCN | 32 (≈ 67 µM) |
| CN[C@@H]1[C@@H](O)[C@@H](O[C@@H]2[C@@H](O)[C@H](O[C@H]3O[C@H](C(C)N)CC[C@H]3N)[C@@H](N)C[C@H]2N)OC[C@]1(C)O (some centres undefined) [GENTAMICIN C2] | 0.5 (≈ 1.08 µM) |
| NC[C@@H]1CC[C@@H](N)[C@@H](O[C@H]2[C@H](O)[C@@H](O)[C@H](N)C[C@@H]2N)O1 [GENTAMINE C1A] | 32 (≈ 110 µM) |
| NCC[C@H](O)C(=O)N[C@@H]1C[C@H](N)[C@@H](O[C@H]2O[C@H](CN)CC[C@H]2N)[C@H](O)[C@H]1O[C@H]1O[C@H](CO)[C@@H](O)[C@H](N)[C@H]1O [ARBEKACIN] | 1 (≈ 1.81 µM) |
| CN[C@@H]1[C@@H](O)[C@@H](O[C@@H]2[C@@H](O)[C@H](O[C@H]3O[C@H]([C@@H](C)NC)CC[C@H]3N)[C@@H](N)C[C@H]2N)OC[C@]1(C)O [GENTAMICIN C1] | 0.5 (≈ 1.05 µM) |

Each compound was assayed on Pseudomonas aeruginosa (assay: Antibacterial activity against Pseudomonas aeruginosa GN3054 expressing AAC(3)-I by twofold agar dilution method).
Type: functional

| SMILES | MIC [mg/L] |
| --- | --- |
| NCCNC(=O)O[C@@H]1[C@@H](O)[C@H](O[C@H]2O[C@H](CN)CC[C@H]2N)[C@@H](N)C[C@H]1NC(=O)[C@@H](O)CCN | > 32 |
| CN[C@@H]1[C@@H](O)[C@@H](O[C@@H]2[C@@H](O)[C@H](O[C@H]3O[C@H](C(C)N)CC[C@H]3N)[C@@H](N)C[C@H]2N)OC[C@]1(C)O (some centres undefined) [GENTAMICIN C2] | 128 (≈ 276 µM) |
| NC[C@@H]1CC[C@@H](N)[C@@H](O[C@H]2[C@H](O)[C@@H](O)[C@H](N)C[C@@H]2N)O1 [GENTAMINE C1A] | 64 (≈ 220 µM) |
| NCC[C@H](O)C(=O)N[C@@H]1C[C@H](N)[C@@H](O[C@H]2O[C@H](CN)CC[C@H]2N)[C@H](O)[C@H]1O[C@H]1O[C@H](CO)[C@@H](O)[C@H](N)[C@H]1O [ARBEKACIN] | 8 (≈ 14.5 µM) |
| CN[C@@H]1[C@@H](O)[C@@H](O[C@@H]2[C@@H](O)[C@H](O[C@H]3O[C@H]([C@@H](C)NC)CC[C@H]3N)[C@@H](N)C[C@H]2N)OC[C@]1(C)O [GENTAMICIN C1] | 128 (≈ 268 µM) |

Each compound was assayed on Staphylococcus aureus (assay: Antibacterial activity against Staphylococcus aureus RN4220/pMS520 expressing AAD(4')-I enzyme by twofold agar dilution method).
Type: functional

| SMILES | MIC [mg/L] |
| --- | --- |
| NCCNC(=O)O[C@@H]1[C@@H](O)[C@H](O[C@H]2O[C@H](CN)CC[C@H]2N)[C@@H](N)C[C@H]1NC(=O)[C@@H](O)CCN | 8 (≈ 16.8 µM) |
| CN[C@@H]1[C@@H](O)[C@@H](O[C@@H]2[C@@H](O)[C@H](O[C@H]3O[C@H](C(C)N)CC[C@H]3N)[C@@H](N)C[C@H]2N)OC[C@]1(C)O (some centres undefined) [GENTAMICIN C2] | 0.25 (≈ 0.539 µM) |
| NC[C@@H]1CC[C@@H](N)[C@@H](O[C@H]2[C@H](O)[C@@H](O)[C@H](N)C[C@@H]2N)O1 [GENTAMINE C1A] | 16 (≈ 55.1 µM) |
| NCC[C@H](O)C(=O)N[C@@H]1C[C@H](N)[C@@H](O[C@H]2O[C@H](CN)CC[C@H]2N)[C@H](O)[C@H]1O[C@H]1O[C@H](CO)[C@@H](O)[C@H](N)[C@H]1O [ARBEKACIN] | 0.5 (≈ 0.905 µM) |
| CN[C@@H]1[C@@H](O)[C@@H](O[C@@H]2[C@@H](O)[C@H](O[C@H]3O[C@H]([C@@H](C)NC)CC[C@H]3N)[C@@H](N)C[C@H]2N)OC[C@]1(C)O [GENTAMICIN C1] | 0.25 (≈ 0.523 µM) |

These compounds were tested on Pseudomonas aeruginosa (assay: Antibacterial activity against Pseudomonas aeruginosa GN4925 expressing AAC(6')-Ib by twofold agar dilution method).
Type: functional

| SMILES | MIC [mg/L] |
| --- | --- |
| NCCNC(=O)O[C@@H]1[C@@H](O)[C@H](O[C@H]2O[C@H](CN)CC[C@H]2N)[C@@H](N)C[C@H]1NC(=O)[C@@H](O)CCN | > 32 |
| CN[C@@H]1[C@@H](O)[C@@H](O[C@@H]2[C@@H](O)[C@H](O[C@H]3O[C@H](C(C)N)CC[C@H]3N)[C@@H](N)C[C@H]2N)OC[C@]1(C)O (some centres undefined) [GENTAMICIN C2] | 128 (≈ 276 µM) |
| NC[C@@H]1CC[C@@H](N)[C@@H](O[C@H]2[C@H](O)[C@@H](O)[C@H](N)C[C@@H]2N)O1 [GENTAMINE C1A] | > 128 |
| NCC[C@H](O)C(=O)N[C@@H]1C[C@H](N)[C@@H](O[C@H]2O[C@H](CN)CC[C@H]2N)[C@H](O)[C@H]1O[C@H]1O[C@H](CO)[C@@H](O)[C@H](N)[C@H]1O [ARBEKACIN] | 4 (≈ 7.24 µM) |
| CN[C@@H]1[C@@H](O)[C@@H](O[C@@H]2[C@@H](O)[C@H](O[C@H]3O[C@H]([C@@H](C)NC)CC[C@H]3N)[C@@H](N)C[C@H]2N)OC[C@]1(C)O [GENTAMICIN C1] | 128 (≈ 268 µM) |

These compounds were tested on Staphylococcus aureus (assay: Antibacterial activity against gentamycin and arbekacin-resistant Staphylococcus aureus RN4220/pMF490 expressing AAC(6')-APH(2'') enzyme by twofold agar dilution method).
Type: functional

| SMILES | MIC [mg/L] |
| --- | --- |
| NCCNC(=O)O[C@@H]1[C@@H](O)[C@H](O[C@H]2O[C@H](CN)CC[C@H]2N)[C@@H](N)C[C@H]1NC(=O)[C@@H](O)CCN | 16 (≈ 33.5 µM) |
| CN[C@@H]1[C@@H](O)[C@@H](O[C@@H]2[C@@H](O)[C@H](O[C@H]3O[C@H](C(C)N)CC[C@H]3N)[C@@H](N)C[C@H]2N)OC[C@]1(C)O (some centres undefined) [GENTAMICIN C2] | > 128 |
| NCC[C@H](O)C(=O)N[C@@H]1C[C@H](N)[C@@H](O[C@H]2O[C@H](CN)CC[C@H]2N)[C@H](O)[C@H]1O[C@H]1O[C@H](CO)[C@@H](O)[C@H](N)[C@H]1O [ARBEKACIN] | 8 (≈ 14.5 µM) |
| CN[C@@H]1[C@@H](O)[C@@H](O[C@@H]2[C@@H](O)[C@H](O[C@H]3O[C@H]([C@@H](C)NC)CC[C@H]3N)[C@@H](N)C[C@H]2N)OC[C@]1(C)O [GENTAMICIN C1] | > 128 |

These compounds were tested on Staphylococcus aureus (assay: Antibacterial activity against Staphylococcus aureus RN4220/pCR1948 expressing AAC(6')-APH(2'') enzyme by twofold agar dilution method).
Type: functional

| SMILES | MIC [mg/L] |
| --- | --- |
| NCCNC(=O)O[C@@H]1[C@@H](O)[C@H](O[C@H]2O[C@H](CN)CC[C@H]2N)[C@@H](N)C[C@H]1NC(=O)[C@@H](O)CCN | 8 (≈ 16.8 µM) |
| CN[C@@H]1[C@@H](O)[C@@H](O[C@@H]2[C@@H](O)[C@H](O[C@H]3O[C@H](C(C)N)CC[C@H]3N)[C@@H](N)C[C@H]2N)OC[C@]1(C)O (some centres undefined) [GENTAMICIN C2] | 64 (≈ 138 µM) |
| NC[C@@H]1CC[C@@H](N)[C@@H](O[C@H]2[C@H](O)[C@@H](O)[C@H](N)C[C@@H]2N)O1 [GENTAMINE C1A] | > 128 |
| NCC[C@H](O)C(=O)N[C@@H]1C[C@H](N)[C@@H](O[C@H]2O[C@H](CN)CC[C@H]2N)[C@H](O)[C@H]1O[C@H]1O[C@H](CO)[C@@H](O)[C@H](N)[C@H]1O [ARBEKACIN] | 1 (≈ 1.81 µM) |
| CN[C@@H]1[C@@H](O)[C@@H](O[C@@H]2[C@@H](O)[C@H](O[C@H]3O[C@H]([C@@H](C)NC)CC[C@H]3N)[C@@H](N)C[C@H]2N)OC[C@]1(C)O [GENTAMICIN C1] | 64 (≈ 134 µM) |

What follows are compounds tested on Pseudomonas aeruginosa (assay: Antibacterial activity against Pseudomonas aeruginosa PAO1 by twofold agar dilution method).
Type: functional

| SMILES | MIC [mg/L] |
| --- | --- |
| NCCNC(=O)O[C@@H]1[C@@H](O)[C@H](O[C@H]2O[C@H](CN)CC[C@H]2N)[C@@H](N)C[C@H]1NC(=O)[C@@H](O)CCN | > 32 |
| CN[C@@H]1[C@@H](O)[C@@H](O[C@@H]2[C@@H](O)[C@H](O[C@H]3O[C@H](C(C)N)CC[C@H]3N)[C@@H](N)C[C@H]2N)OC[C@]1(C)O (some centres undefined) [GENTAMICIN C2] | 4 (≈ 8.63 µM) |
| NC[C@@H]1CC[C@@H](N)[C@@H](O[C@H]2[C@H](O)[C@@H](O)[C@H](N)C[C@@H]2N)O1 [GENTAMINE C1A] | 32 (≈ 110 µM) |
| NCC[C@H](O)C(=O)N[C@@H]1C[C@H](N)[C@@H](O[C@H]2O[C@H](CN)CC[C@H]2N)[C@H](O)[C@H]1O[C@H]1O[C@H](CO)[C@@H](O)[C@H](N)[C@H]1O [ARBEKACIN] | 4 (≈ 7.24 µM) |
| CN[C@@H]1[C@@H](O)[C@@H](O[C@@H]2[C@@H](O)[C@H](O[C@H]3O[C@H]([C@@H](C)NC)CC[C@H]3N)[C@@H](N)C[C@H]2N)OC[C@]1(C)O [GENTAMICIN C1] | 4 (≈ 8.38 µM) |

The compounds below were run on Staphylococcus aureus (assay: Antibacterial activity against gentamycin and arbekacin-resistant Staphylococcus aureus MF490 expressing AAD(4'), AAC(6')-APH(2'') enzymes by twofold agar dilution method).
Type: functional

| SMILES | MIC [mg/L] |
| --- | --- |
| NCCNC(=O)O[C@@H]1[C@@H](O)[C@H](O[C@H]2O[C@H](CN)CC[C@H]2N)[C@@H](N)C[C@H]1NC(=O)[C@@H](O)CCN | 32 (≈ 67 µM) |
| CN[C@@H]1[C@@H](O)[C@@H](O[C@@H]2[C@@H](O)[C@H](O[C@H]3O[C@H](C(C)N)CC[C@H]3N)[C@@H](N)C[C@H]2N)OC[C@]1(C)O (some centres undefined) [GENTAMICIN C2] | > 128 |
| NC[C@@H]1CC[C@@H](N)[C@@H](O[C@H]2[C@H](O)[C@@H](O)[C@H](N)C[C@@H]2N)O1 [GENTAMINE C1A] | > 128 |
| NCC[C@H](O)C(=O)N[C@@H]1C[C@H](N)[C@@H](O[C@H]2O[C@H](CN)CC[C@H]2N)[C@H](O)[C@H]1O[C@H]1O[C@H](CO)[C@@H](O)[C@H](N)[C@H]1O [ARBEKACIN] | 64 (≈ 116 µM) |
| CN[C@@H]1[C@@H](O)[C@@H](O[C@@H]2[C@@H](O)[C@H](O[C@H]3O[C@H]([C@@H](C)NC)CC[C@H]3N)[C@@H](N)C[C@H]2N)OC[C@]1(C)O [GENTAMICIN C1] | > 128 |
